# Measured values from patent US20260158148A1, “PRODRUG INTENDED FOR THE TREATMENT OF BACTERIAL […] TO A[…] THE BETA-LACTAM FAMILY” (Osta Therapeutics, priority 2022, published 2026).
# Tested on: beta-lactamase
# Assay: In-vitro cleavage of the OSTA-1 prodrug by beta-lactamase (release of trans-cinnamaldehyde monitored by UV absorption at 285 nm)
# Assay type: biochemical
# Method: Cleavage of the OSTA-1 prodrug was tested in vitro by contact with a beta-lactamase in saline aqueous media.
# The cleavage test is performed in physiological saline buffer (Phosphate Buffer Saline, PBS) at pH 7.0. The OSTA-1 molecule is added at a concentration of 100 microM, along with commercial beta-lactamase at a concentration of 1 unit per mL. Incubation is carried out at 37° C. The appearance of free trans-cinnamaldehyde in the medium is then monitored by UV absorption at 285 nm.
# The release of the active ingredient, in this case trans-cinnamaldehyde, was monitored by UV absorption at 285 nm. The progress of the release of the prodrug molecule's active ingredient (100 microM) was observed, in the presence and absence of beta-lactamase.
compound,measurement,setting,value
COC(/C=C/c1ccccc1)N(C)C(=O)OCC1=C(C(=O)O)N2C(=O)[C@@H](NC(=O)Cc3cccs3)[C@H]2SC1 (stereo partly drawn) [OSTA-1],cleavability by beta-lactamase (conclusion),"in vitro, saline aqueous media",cleavable by beta-lactamase and releases the active ingredient
same,spontaneous release of the active ingredient in the absence of beta-lactamase,"prodrug 100 microM, PBS pH 7.0, 37° C., no beta-lactamase, UV absorption at 285 nm",no spontaneous release
same,release of the active ingredient (trans-cinnamaldehyde) in the presence of beta-lactamase,"prodrug 100 microM, commercial beta-lactamase 1 unit per mL, PBS pH 7.0, 37° C., UV absorption at 285 nm, after two hours",released in significant quantities
